Experimental findings from patent US10793527B2, “Adenosine monophosphate-activated protein kinase agonist” (NATIONAL YANG-MING UNIVERSITY, priority 2016, dated 2020) are described below.

The pIC50 is the IC50 on a negative log10 scale, so that one unit is a factor of ten. A higher pIC50 goes with a small IC50.

pIC50: −log10 of the molar value. Where only a bound is given, the exact number is not on record here.

One test relates to AMPK T172. Nature of the test: Detection of AMPK phosphorylation by ELISA assay in PLC5 cells. Type of test: cell-based. The note with it: PLC5 cultured with 10 μM compound for 24 hours, compared to control group. As to the method:
In this analysis, the commercial kit AMPK […] Phospho-ELISA Kit (KHO0651) produced by ThermoFisher Science is utilized. The hepatoma cell PLC5 is cultured with 10 μM of the compound for 24 hours, and the analysis is performed according to the manual, and the absorbance was detected at a wavelength of 450 nm.
A general note: ELISA stands for enzyme-linked immunosorbent assay.

The subject of a further test is PLC/PRF/5 (PLC5) cells. The test is described as follows: Cell viability of liver cancer cells (Prestoblue), PLC5. Type of test: cell-based. The settings on record: PLC5 cells, 48 hr. On the procedure:
Hepatoma cell Huh-7 was obtained from Health Science Research Resources Bank (HSRRB, Osaka. Japan; JCRB0403); Hepatoma cell PLC/PRF/5 (PLC5), Sk-Hep-1 and HCC1806 were obtained from the American Type Culture Collection (ATCC, Manassas, Va.). All cell lines are cultured immediately and frozen, so the frozen cells can be thawed every 3 months to allow experiments are conducted with the same batch of cells.
Analysis is performed using a commercial kit Prestoblue assay produced by Thermo Fisher Scientific. Three liver cancer cell lines PLC/PRF/5, SK-hep1, and Huh-7 are cultured with compound SCT-1015 for 48 hours and 72 hours, respectively. […] The results support that the compound of the present invention can activate AMPK to inhibit the proliferation of liver cancer cells.

Test [1] in a line: Treatment of diet-induced obesity (DIO) mice, body weight. The format is in vivo. The note with it: compared to the control group of mice (FIG. 6). From the text:
The male mice C57BL/6 were purchased from the National Laboratory Animal Center (NLAC, Taipei, Taiwan) and fed high-fat-die for 4 weeks to establish the diet-induced obesity (DIO) mouse model for subsequent experiments

`CSc1cccc(-c2ccnc(Nc3cc(C(=O)Nc4ccc(Cl)c(C(F)(F)F)c4)ccc3C)n2)c1` [SCT-1008, N-(4-chloro-3-(trifluoromethyl)phenyl)-4-methyl-3-((4-(3-(methylthio)phenyl)pyrimidin-2-yl)amino)benzamide]: the “AMPK T172 activity” value in the test with AMPK T172 is recorded as 1.0 fold. Moreover, the pIC50 with PLC/PRF/5 (PLC5) cells is below 4.70.

`Cc1cc(-c2ccnc(Nc3cc(C(=O)Nc4ccc(Cl)c(C(F)(F)F)c4)ccc3C)n2)ccc1F` [SCT-1009, N-(4-chloro-3-(trifluoromethyl)phenyl)-3-((4-(4-fluoro-3-methylphenyl)pyrimidin-2-yl)amino)-4-methylbenzamide]: the “AMPK T172 activity” value in the test with AMPK T172 is listed as 1.1 fold. The same compound showed a pIC50 with PLC/PRF/5 (PLC5) cells below 4.70.

Regarding `Cc1ccc(C(=O)Nc2ccc(Cl)c(C(F)(F)F)c2)cc1Nc1nccc(-c2ccc(OC(F)(F)F)cc2)n1` [SCT-1010, N-(4-chloro-3-(trifluoromethyl)phenyl)-4-methyl-3-((4-(4-(trifluoromethoxy)phenyl)pyrimidin-2-yl)amino)benzamide], in the test with AMPK T172, the “AMPK T172 activity” value was 1.0 fold. The compound also had a pIC50 in the test with PLC/PRF/5 (PLC5) cells below 4.70.

`Cc1ccc(C(=O)Nc2ccc(Cl)c(C(F)(F)F)c2)cc1Nc1nccc(-c2ccc(C(F)(F)F)cc2)n1` [SCT-1011, N-(4-chloro-3-(trifluoromethyl)phenyl)-4-methyl-3-((4-(4-(trifluoromethyl)phenyl)pyrimidin-2-yl)amino)benzamide]: the “AMPK T172 activity” value with AMPK T172 was determined as 1.1 fold. The pIC50 in the test with PLC/PRF/5 (PLC5) cells was below 4.70.

Regarding `Cc1ccc(C(=O)Nc2ccc(Cl)c(C(F)(F)F)c2)cc1Nc1nccc(-c2cc(Cl)cc(Cl)c2)n1` [SCT-1012, N-(4-chloro-3-(trifluoromethyl)phenyl)-3-((4-(3,5-dichlorophenyl)pyrimidin-2-yl)amino)-4-methylbenzamide], the “AMPK T172 activity” value in the test with AMPK T172 is recorded as 1.0 fold. In the test with PLC/PRF/5 (PLC5) cells, this compound showed a pIC50 below 4.70.

In the case of `N#Cc1ccc(-c2ccnc(Nc3cccc(NC(=O)Nc4ccc(Cl)c(C(F)(F)F)c4)c3)n2)cc1` [SCT-1013, 1-(4-chloro-3-(trifluoromethyl)phenyl)-3-(3-((4-(4-cyanophenyl)pyrimidin-2-yl)amino)phenyl)urea], the “AMPK T172 activity” value with AMPK T172 amounted to 1.0 fold. Also, in the test on PLC/PRF/5 (PLC5) cells, the pIC50 is below 4.70.

On to `N#Cc1cccc(-c2ccnc(Nc3cccc(NC(=O)Nc4ccc(Cl)c(C(F)(F)F)c4)c3)n2)c1` [SCT-1014], for which the “AMPK T172 activity” value in the test on AMPK T172 was 1.0 fold. In addition, the pIC50 in the test with PLC/PRF/5 (PLC5) cells was below 4.70.

For the compound `O=C(Nc1cccc(Nc2nccc(-c3ccccc3)n2)c1)Nc1ccc(Cl)c(C(F)(F)F)c1` [SCT-1016, 1-(4-chloro-3-(trifluoromethyl)phenyl)-(3-((4-phenylpyrimidin-2-yl)amino)phenyl)urea], the “AMPK T172 activity” value with AMPK T172 amounted to 1.0 fold. This compound gave a pIC50 in the test with PLC/PRF/5 (PLC5) cells below 4.70.

For `O=C(Nc1cccc(Nc2nccc(-c3cccs3)n2)c1)Nc1ccc(Cl)c(C(F)(F)F)c1` [SCT-1017, 1-(4-chloro-3-(trifluoromethyl)phenyl)-3-(3-((4-(thiophen-2-yl)pyrimidin-2-yl)amino)phenyl)urea], in the test on AMPK T172, the “AMPK T172 activity” value was determined as 1.1 fold. The compound also showed a negative logarithm of the IC50 (pIC50) with PLC/PRF/5 (PLC5) cells below 4.70.

On to `CSc1cccc(-c2ccnc(Nc3cccc(NC(=O)Nc4ccc(Cl)c(C(F)(F)F)c4)c3)n2)c1` [SCT-1018, 1-(4-chloro-3-(trifluoromethyl)phenyl)-3-(3-((4-(3-(methylthio)phenyl)pyrimidin-2-yl)amino)phenyl)urea], for which, in the test on AMPK T172, the “AMPK T172 activity” value came to 1.1 fold. In the test on PLC/PRF/5 (PLC5) cells, the pIC50 is below 4.70.

With `Cc1cc(-c2ccnc(Nc3cccc(NC(=O)Nc4ccc(Cl)c(C(F)(F)F)c4)c3)n2)ccc1F` [SCT-1019, 1-(4-chloro-3-(trifluoromethyl)phenyl)-3-(3-((4-(4-fluoro-3-methylphenyl)pyrimidin-2-yl)amino)phenyl)urea], in the test with AMPK T172, the “AMPK T172 activity” value is on record as 1.0 fold. Further, the pIC50 in the test on PLC/PRF/5 (PLC5) cells was below 4.70.

Consider `O=C(Nc1cccc(Nc2nccc(-c3ccc(OC(F)(F)F)cc3)n2)c1)Nc1ccc(Cl)c(C(F)(F)F)c1` [SCT-1020, 1-(4-chloro-3-(trifluoromethyl)phenyl)-3-(3-((4-(4-(trifluoromethoxy)phenyl)pyrimidin-2-yl)amino)phenyl)urea], for which, in the test with AMPK T172, the “AMPK T172 activity” value came out at 1.3 fold. Moreover, the pIC50 in the test with PLC/PRF/5 (PLC5) cells was below 4.70.

Consider `O=C(Nc1cccc(Nc2nccc(-c3ccc(C(F)(F)F)cc3)n2)c1)Nc1ccc(Cl)c(C(F)(F)F)c1` [SCT-1021, 1-(4-chloro-3-(trifluoromethyl)phenyl)-3-(3-((4-(4-(trifluoromethyl)phenyl)pyrimidin-2-yl)amino)phenyl)urea], for which, in the test on AMPK T172, the “AMPK T172 activity” value turned out to be 1.2 fold. The pIC50 in the test on PLC/PRF/5 (PLC5) cells is below 4.70.

In the case of `O=C(Nc1cccc(Nc2cc(-c3ccccc3)ncn2)c1)Nc1ccc(Cl)c(C(F)(F)F)c1` [SCT-1022], the “AMPK T172 activity” value with AMPK T172 was 1.4 fold. This compound also showed a pIC50 in the test with PLC/PRF/5 (PLC5) cells below 4.70.

With `CCCCCCCCCCC[C@@H](C[C@@H]1OC(=O)[C@H]1CCCCCC)OC(=O)[C@H](CC(C)C)NC=O` [orlistat, reference compound], the body weight lost result in test [1] was “similar”.
